Measurements reported in patent publication US12600696B2 (XENIOPRO GMBH, priority 2017, dated 2026).

Assays:
Format in all cases: cell-based
[1] = system: HL-60 cells (human acute myeloid leukemia cells); assay: alamarBlue proliferation assay with HL-60 cells; settings: 120 h, 5 days, relative to DMSO baseline level of 1.0, read-out: AVEw, weighted arithmetic mean of normalized fluorescence intensity values (Activity Range), HL-60 proliferation
Experimental: (§1) The antiproliferative activities of compounds falling under formula I, formula II, formula III, formula IV and formula V were investigated on cells or cell lines originating from a disorder of the myeloid cell compartment, the neuroendocrine system, the cervix, and the mucosal epithelium, as well as from the skin epithelium. To this end, HL-60 cells, TT cells, HeLa cells, CAL-27 cells and human primary epidermal keratinocytes (HPEK) were seeded into 96-well plates suitable for fluorescence assays (CORNING #3598) at following initial cell numbers: 1000 cells per well for HL-60; 9000 cells per well for TT; 2000 cells per well for HeLa, 2000 cells per well for CAL-27, 2000 cells per well for HPEK. The cells were treated with compounds at indicated final concentrations (diluted from the 1000× stock-solutions in DMSO to a final DMSO concentration of 0.1% v/v) or with the empty carrier DMSO at 0.1% v/v as control for 5 days. At day 5 after starting the treatments the cells were subjected to the alamarBlue® Proliferation Assay (Bio-Rad Serotec GmbH, BUF012B) according to the protocol of the manufacturer. The readout was taken with a multi-well plate-reader in the fluorescence mode with applying a filter for excitation at 560 nm (band width 10 nm) and for emission at 590 nm (band width 10 nm). Resveratrol (RES) treatment was included as control for growth inhibition.
(§2) The assays were performed in duplicate or more replicates of independent single experiments each containing a six-fold replicate for every condition. For every individual plate, the measured fluorescence intensity values of the conditions with compound treatment were normalized against the corresponding equally weighted arithmetic mean of the fluorescence intensity values of the six DMSO treated control wells in order to obtain the relative values to a baseline level of 1.0. The statistical calculations were performed in analogy to the luciferase assay as described above. To this end, two independent outlier analyses were performed according to the methods by Peirce and Chauvenet (Ross, Journal of Engineering Technology 2003, 1-12). Outliers confirmed by at least one of the methods were excluded from the calculations but not more than one value out of six per compound within a single experiment. The weighted arithmetic mean AVEw for each compound was calculated from the normalized values over all independent replicates of the single experiments comprising the six replicates each. The corresponding standard deviation for the weighted arithmetic mean was calculated according to the method described by Bronstein et al. (Bronstein, Semendjajew, Musiol, Mühlig, Taschenbuch der Mathematik, 5th edition 2001 (German), publisher: Verlag Harri Deutsch, Frankfurt am Main and Thun) and was combined with the Gauß′ error propagation associated with the performed calculation for the normalization. The resulting standard deviation is herein referred to as “combined standard deviation”.
HL-60 cells were cultivated according to the protocol of the provider in RPMI 1640 medium (Fisherscientific, #11554526) containing 10% fetal bovine serum (Fisherscientific, #15517589).
(§3) A compound is considered as a growth inhibitor of HL-60 cells, if—at a reference concentration of 20 μM—the weighted arithmetic mean of the normalized fluorescence intensity values after addition of the corresponding combined standard deviation amounts to 0.9 or lower, in particular to 0.8 or lower, 0.7 or lower, 0.6 or lower, 0.4 or lower, and 0.2 or lower, relative to the overall basis level of 1.0. The overall basis level was calculated as the weighted arithmetic mean of all normalized values from the DMSO control measurements in analogy to the calculations performed for the test-compounds. The corresponding combined standard deviation for the DMSO values amounts to less than 1·10^−2.

[2] = system: CAL-27 cells (human tongue squamous cell carcinoma cells); assay: alamarBlue proliferation assay with CAL-27 cells; settings: Homo sapiens, 120 h, 20 μM, 5 days, relative to DMSO baseline level of 1.0, read-out: AVEw, weighted arithmetic mean of normalized fluorescence intensity values (Activity Range), CAL-27 proliferation
Experimental: as §1, §2
CAL-27 cells were cultivated according to the protocol of the provider (but at 5% instead of 10% CO2) in DMEM medium (Fisherscientific, #11584456) containing 10% fetal bovine serum (Fisherscientific, #15517589).
as §3, with “CAL-27” for “HL-60”

[3] = system: Notch signaling (hNotch1ΔE, human Notch1 receptor) in HeLa cells; assay: Notch reporter assay (luciferase luminescence readout in transfected HeLa cells); settings: Homo sapiens, 20 hours, relative to DMSO baseline level of 1.0, read-out: AVEw, weighted arithmetic mean of double-normalized Notch-reporter luciferase luminescence values (Activity Range)
Experimental: An according Notch-reporter assay, i.e. a luciferase-based luminescence readout, was used here to quantify the ability of the claimed small molecules to augment Notch signaling in a cellular system. For this purpose, HeLa cells, obtainable from the American Type Culture Collection (ATCC) under the accession number ATCC-CCL-2, were transiently transfected for 24 hours using FuGENE® HD (Promega, #E2311) as transfection reagent with expression vectors of a membrane-tethered form of the constitutively active intracellular domain of the human Notch1 receptor (hNotch1ΔE) to activate the signaling cascade (BPS Bioscience, human analogue to Notch Pathway Reporter Kit #60509 component C), a Firefly luciferase being expressed under the control of a Notch-responsive promoter to monitor Notch signaling (BPS Bioscience, Notch Pathway Reporter Kit #60509, CSL luciferase reporter vector from component A not premixed with Renilla luciferase vector), and a Renilla luciferase being constitutively expressed in a Notch signaling independent manner to include a measure for the cell number per sample (Promega, pRL-SV40, #E2231). HeLa cells were cultivated according to the protocol of the provider in DMEM medium (Fisherscientific, #11584456) containing 10% fetal bovine serum (Fisherscientific, #15517589). The transfection was carried out in a 100 mm-culture dish (StarLab, #CC7682-3394) with cells being properly attached to the plate at a cell confluency of 80-90% in a total volume of 7 mL culture medium. Per dish to be transfected, a transfection mix was prepared by adding to 238 μL Opti-MEM (Fisherscientific, #10149832) 40 μL of the hNotch1ΔE expression vector (100 ng/μL), 80 μL of the CSL luciferase reporter vector (40 ng/μL), 4 μL of the pRL-SV40-Renilla luciferase vector (10 ng/μL), and in the last step 18.1 μL of FuGENE® HD. After addition of FuGENE® HD the transfection mix was let stand for 15 min at room temperature and hereafter equally distributed into the culture dish. Subsequently, i.e. after 24 hours of transfection, the transfected cells (10.000 cells per well) were incubated with the test-compounds at a final concentration of 10 μM (diluted from 10 mM stock-solutions in DMSO to a final DMSO concentration of 0.1% v/v) or with the empty carrier DMSO at 0.1% v/v as control for 20 hours in 96-well plates suitable for luminescence readouts (CORNING, #3610). Hereafter, the cells were lysed with 30 μL per well of Passive Lysis Buffer (Promega, #E194A, component of Dual-Luciferase® Reporter Assay System, #E1910) and the Firefly as well as Renilla luciferase values were measured with a luminescence reader with applying 15 μL per well each of the corresponding enzyme substrates needed to create the luminescence signals (Promega, Dual-Luciferase® Reporter Assay System, #E1910).
The suitability of the assays for monitoring Notch signaling was controlled by additionally including a generally accepted commercial Notch inhibitor, i.e. DAPT, as negative control, as well as the reported Notch enhancer resveratrol (RES) as positive control (Pinchot et al., Cancer 2011, 117, 1386-1398; Truong et al., Ann. Surg. Oncol. 2011, 18, 1506-1511; Yu et al., Mol. Cancer Ther. 2013, 12, 1276-1287). Both control compounds were likewise tested at 10 μM.
Per single experiment the measurement was performed in six replicates per compound. For every compound, this experiment was repeated in three or more independent replicates. The values of the Notch-reporter luciferase were normalized by division through the corresponding individual Notch-independent Renilla values in order to eliminate the impact of variation in the absolute cell-numbers in between the samples. For every individual plate, a second normalization was performed against the equally weighted arithmetic mean (here abbreviated as AVE) of the six associated Renilla-normalized DMSO-control values within a single experiment in order to obtain the relative values to a baseline level of 1.0. […]

SMILES: CCC(C)(C)c1ccc(Oc2ccc(C(=O)NO)cc2F)cc1 [Compound 529, 3-fluoro-N-hydroxy-4-(4-(tert-pentyl)phenoxy)benzamide]
- activity at 20 µM [1]: 0 to 20%
- activity at 20 µM [2]: 0 to 20%

SMILES: O=C(NO)c1cnc(Oc2ccc(C3(C(F)(F)F)CC3)cc2)c(F)c1 [Compound 804, 5-fluoro-N-hydroxy-6-(4-(1-(trifluoromethyl)cyclopropyl)phenoxy)nicotinamide]
- activity at 20 µM [1]: 0 to 20%
- activity at 20 µM [2]: 0 to 20%

SMILES: CNC(=O)c1ccc(Oc2ccc(C34CC5CC(CC(C5)C3)C4)cc2)nc1 [Compound 313, 6-(4-((3r,5r,7r)-adamantan-1-yl)phenoxy)-N-methylnicotinamide]
- activity at 20 µM [1]: 40 to 60%
- activity at 20 µM [2]: 70 to 80%

SMILES: CNC(=O)c1ccc(Oc2ccc(C3CC4CCC3CC4)cc2)cc1 (stereo not shown) [Compound 211, 4-(4-((1s,4s)-bicyclo[2.2.2]octan-2-yl)phenoxy)-N-methylbenzamide]
- activity at 20 µM [1]: 20 to 40%
- activity at 20 µM [2]: 40 to 60%

SMILES: O=C(NO)c1cnc(Oc2ccc(C34CC5CC(CC(C5)C3)C4)cc2)c(F)c1 [Compound 648, 6-(4-((3r,5r,7r)-adamantan-1-yl)phenoxy)-5-fluoro-N-hydroxynictinamide]
- activity at 20 µM [1]: 0 to 20%
- activity at 20 µM [2]: 0 to 20%

SMILES: O=C(NO)c1ccc(Oc2ccc(C3(C(F)(F)C(F)(F)F)CC3)cc2)nc1 [Compound 803, N-hydroxy-6-(4-(1-(perfluoroethyl)cyclopropyl)phenoxy)nicotinamide]
- activity at 20 µM [1]: 0 to 20%
- activity at 20 µM [2]: 0 to 20%

SMILES: O=C(NO)c1ccc(Oc2ccc(C3(C(F)(F)F)CC3)cc2)nc1 [Compound 802, N-hydroxy-6-(4-(1-(trifluoromethyl)cyclopropyl)phenoxy)nicotinamide]
- activity at 20 µM [1]: 0 to 20%
- activity at 20 µM [2]: 0 to 20%

SMILES: CCOC(=O)c1ccc(Oc2ccc(C3CC4CCC3C4)cc2)cc1 (racemic) [Compound 066, ethyl 4-(4-((1S,4R)-bicyclo[2.2.1]heptan-2yl)phenoxy)benzoate]
- fold induction at 10 µM [3]: 1.3 to 1.4
- activity at 20 µM [1]: 40 to 60%

SMILES: CCc1ccc(Oc2ccc(C(=O)OC)cn2)cc1 [Compound 092, methyl 6-(4-ethylphenoxy)nicotinate]
- fold induction at 10 µM [3]: 1.2 to 1.3
- activity at 20 µM [1]: 80 to 90%

SMILES: CCCc1ccc(Oc2ccc(C(=O)N(C)C)cc2)cc1 [Compound 217, N,N-dimethyl-4-(4-propylphenoxy)benzamide]
- fold induction at 10 µM [3]: 1.2 to 1.3
- activity at 20 µM [1]: 60 to 70%

SMILES: CN(C)C(=O)c1ccc(Oc2ccc(C3(C(F)(F)F)CC3)cc2)cc1 [Compound 784, N,N-Dimethyl-4-(4-(1-(trifluoromethyl)cyclopropyl)phenoxy)-benzamide]
- fold induction at 10 µM [3]: 1.2 to 1.3
- activity at 20 µM [1]: 40 to 60%

SMILES: CN(C)C(=O)c1ccc(Oc2ccc(C(F)(F)F)cc2)nc1 [Compound 325, N,N-dimethyl-6-(4-(trifluoromethyl)phenoxy)nicotinamide]
- fold induction at 10 µM [3]: 1.2 to 1.3
- activity at 20 µM [1]: 80 to 90%

SMILES: CC(C)c1ccc(Oc2ccc(C(=O)O)cn2)cc1 [Compound 075, 6-(4-isopropylphenoxy)nicotinic acid]
- fold induction at 10 µM [3]: 1.4 to 1.7
- activity at 20 µM [1]: 80 to 90%

SMILES: CCOC(=O)c1ccc(Oc2ccc(C3CC4CCC3CC4)cc2)nc1 (racemic) [Compound 134, ethyl 6-(4-((1s,4s)-bicyclo[2.2.2]octan-2-yl)phenoxy)nicotinate]
- fold induction at 10 µM [3]: 1.4 to 1.7
- activity at 20 µM [1]: 70 to 80%

SMILES: COC(=O)c1ccc(Oc2ccc(C3CCCCC3)cc2)c(F)c1 [Compound 385, methyl 4-(4-cyclohexylphenoxy)-3-fluorobenzoate]
- fold induction at 10 µM [3]: 1.4 to 1.7
- activity at 20 µM [1]: 80 to 90%

SMILES: COC(=O)c1ccc(Oc2ccc(C3C[C@@H]4CC[C@H]3C4)cc2)cc1 (stereo partly drawn) [Compound 043, methyl 4-(4-((1S,4R)-bicyclo[2.2.1]heptan-2-yl)phenoxy)benzoate]
- fold induction at 10 µM [3]: 1.7 to 2
- activity at 20 µM [1]: 40 to 60%

SMILES: CCCCc1ccc(Oc2ccc(C(=O)OCC)cc2F)cc1 [Compound 395, Ethyl 4-(4-butylphenoxy)-3-fluorobenzoate]
- fold induction at 10 µM [3]: 1.4 to 1.7
- activity at 20 µM [1]: 80 to 90%
